Reference: US20250283871A1, “COMPOSITIONS AND METHODS FOR MODULATING THE INTERACTION BETWEEN SS18-SSX FUSION ONCOPROTEIN AND NUCLEOSOMES” (Dana-Farber Cancer Institute, Inc., priority 2020, published 2025)
Several values for one entry are separate records, joined by “and”; a condition that tells them apart may be missing. Equal values may be shown once.

Columns and labels:
[1] = tested on: Barr bodies (inactive X); assay: Immunofluorescence, Barr body localization; type: cell-based, human
Procedure: Immunofluorescent images were obtained as previously described (Daou et al. (2011) Pro. Nat. Acad. Sci. U.S.A 108:2747-2752). Following lentiviral infection and/or drug treatment, cells were prepared by fixation in 3% PFA-PBS and then were permeabilized with PBS 0.1% NP40. Following incubation with primary antibodies, the Anti-rabbit Alexa Fluor® 594 and Anti-mouse Alexa Fluor® 488 (Life Technologies) secondary antibodies were used for visualization. Staining with 4′,6-diamidino-2-phenylindole (DAPI) was used to visualize nuclei. Images were acquired using Zeiss Axio Imager Z2 microscope and images were processed using ImageJ program (NIH).

[2] = tested on: mammalian mononucleosomes from HEK293T cells; assay: Protein and peptide pull downs with mammalian mononucleosomes; type: binding, human; conditions: mammalian mononucleosomes
Procedure: (§1) The flow through was removed, the immobilized bait was incubated with 1-2 μg of purified mammalian mono-nucleosomes from HEK293T cells, recombinant mono-nucleosomes (EpiCypher, 16-0006), recombinant H2AK119Ub mono-nucleosomes (EpiCypher, 16-0020) or recombinant protein for 3 hours at 4° C., and the beads were washed 3× with EB150 buffer and then eluted in 2×LDS with 200 mM DTT with heating at 95° C. for 5 minutes. The pull downs were then visualized by immunoblot analysis or colloidal blue staining.
Mammalian mononucleosomes were purified from HEK293T cells similar to as previously described (Mashtalir et al. (2014) Mol. Cell 54:392-406). Cells were scraped from plates, washed with cold PBS, and centrifuged at 5,000 rpm for 5 min at 4° C. Pellets were resuspended in hypotonic buffer (EBO: 50 mM Tris HCl, pH 7.5, 1 mM EDTA, 1 mM MgCl2, 0.1% NP40 supplemented with 1 mM DTT, 1 mM PMSF, and protease inhibitor cocktail (Roche, C756U27) and incubated for 5 min on ice. The suspension was centrifuged at 5,000 rpm for 5 min at 4° C., and pellets were resuspended in 5 volumes of EB420 (EBO: 50 mM Tris HCl, pH 7.5, 420 mM NaCl, 1 mM MgCl2, 0.1% NP40 with supplemented with 1 mM DTT and 1 mM PMSF containing protease inhibitor cocktail (Roche, C756U27). Homogenate incubated on rotator for 1 hour at 4° C. The supernatant was then centrifuged at 20,000 rpm (30,000×g) for 1 hour at 4° C. using a SW32Ti rotor. Supernatant was then discarded and chromatin pellet was washed in MNAse buffer (20 mM Tris-HCl pH 7.5, 100 mM KCl, 2 mM MgCl2, 1 mM CaCl2, […] sucrose, 0.1% NP-40, and protease inhibitor cocktail) three times. Following MNase treatment (3 U/mL for 30 min at room temperature, Sigma-Aldrich), the reaction was quenched with 5 mM of EGTA and 5 mM of EDTA. The samples were then centrifuged at 20,000×g for 1 hour at 4° C. to obtain the soluble chromatin fraction. Soluble chromatin fraction was loaded onto 10-30% glycerol gradient (Mashtalir et al. (2014) Mol. Cell 54:392-406) and fractions containing mononucleosomes were isolated and concentrated using centrifugal filter (Amicon, EMD Millipore).

[3] = tested on: BAF complex components; assay: anti-SMARCA4 (BRG1) IP mass spectrometry (Tables 7A-7C); type: cell-based, human; conditions: Aska-SS cells -/+ shSSX
Procedure: Peptide abundance normalized to SMARCA4 abundance. […] SMARCC1, SS18, GFP, SMARCB1, and TBP levels are shown. […] T indicates 0-40 min timecourse; n=3 experimental replicates at each time point; error bars represent standard deviation.
Nuclear extracts were quantified by Bradford assay and 150-200 μg of protein was incubated with 2 μg of antibody in Buffer EB300 (50 mM Tris pH 7.5, 0.1% NP-40, 1 mM EDTA, 1 mM MgCl2, […] with protease inhibitor (Roche, C756U27), 1 mM DTT and 1 mM phenylmethylsulfonyl fluoride (PMSF)) overnight at 4° C. Each sample was then incubated with Protein G Dynabeads® (Thermo Scientific) for 2-3 hours. Beads were washed three times with Buffer EB300 followed by elution with 20 μL of elution buffer (NuPage™ LDS buffer (2×) (Life Technologies) containing 100 mM DTT and water).

[4] = tested on: IMR90 fibroblasts; assay: Peptide hybridization assay; type: cell-based; conditions: methanol-fixed IMR90 fibroblasts, co-stain H2A K119Ub
Procedure: IMR90 fibroblasts were grown on coverslips, washed with PBS and fixed using 100% ice-cold methanol for 3 minutes. Coverslips were then washed with IF wash buffer (PBS 0.1% NP40 1 mM Sodium azide) 3 times. Selected groups were treated with 200 ng/ml of recombinant USP2 catalytic domain (Boston biochem) for 1 hour. Coverslips were then washed 3 times with IF wash buffer and incubated with 2 μM of biotinylated peptides. Coverslips were subsequently washed 3 times with IF wash buffer and fixed in 3% PFA-PBS for 20 minutes. The rest of the procedure followed accordingly to standard IF protocol. In brief, following incubation with primary antibodies, the Anti-rabit Alexa Fluor® 594 and Streptavidin Alexa Fluor® 488 (Life Technologies) secondary antibodies/reagent were used for visualization of primary antibodies or biotinylated peptides. Staining with 4′,6-diamidino-2-phenylindole (DAPI) was used to visualize nuclei. Images were acquired using Zeiss Axio Imager Z2 microscope and images were processed using ImageJ program (NIH).

[5] = tested on: nucleosome acidic patch; assay: Detection of nucleosome acidic patch interactions by photocrosslinking; type: binding; conditions: diazirine probes in nucleosome acidic patch
Procedure: Briefly, diazirine-containing recombinant nucleosomes (0.5 uM) were incubated with biotinylated SSX peptides (12.5 uM) in binding buffer (20 mM HEPES, pH 7.9, 4 mM Tris, pH 7.5, 150 mM KCl, 10 mM MgCl2, 10% glycerol, and 0.02% (v/v) IGEPAL CA-630) at 30° C. for 30 mins, and cooled on ice for 5 mins. The reaction mixtures were then irradiated at 365 nm for 10 minutes. Reactions were then analyzed by western blotting employing IRDye® 800CW streptavidin on a LI-COR Odyssey® Infrared Imager. Additional details are found in Dao et al. (2019) Nat.

[6] = tested on: recombinant H2AK119Ub mono-nucleosomes; assay: Pull downs with WT or H2A K119Ub nucleosomes; type: binding
Procedure: as §1

[7] = tested on: SYO-1 SS cells; assay: Cell proliferation assay; type: cell-based, human; conditions: SYO-1, rescue with variant
Procedure: To measure cell proliferation following lentiviral infection, 2.5×10^4 cells per well were seeded in 12-well plates following 48-hour exposure to lentivirus and 5-day selection with puromycin or blasticidin, with Day 7 denoting the day cells were plated after infection and selection. The cell viability in three wells was then measured using a Vi-CELL™ Cell Counter (Beckman, Brea, CA) every 72 hours.

[8] = biological target: T1, mammalian mononucleosomes from HEK-293T cells (Homo sapiens, UniProt P62805); assay: Quantitative targeted mass spectrometry of histone marks on MBP-SSX1 78aa-bound nucleosomes (Tables 6A-6C); type: binding; conditions: SSX1 pulldown, parent peptide H4K20
T1 construct: endogenous in cells; host or cells: HEK293T (chromatin digested with MNase, glycerol gradient)
Procedure: (§2) Mammalian mono-nucleosomes purified from MBP-SSX1 78aa pull downs along with representative input samples were prepared and analyzed by the targeted mass spectrometry pipeline described previously (Creech et al. (2015) Methods 72:57-64). Briefly, samples were prepared by histone extraction by acid precipitation followed by protein digestion from incubation with trypsin. To these prepared samples, synthesized isotopically labeled peptides of histone tails with numerous modifications were added at a known quantity. Each sample was then separated using a Proxeon EASY-nLC™ 1000 UHPLC system (Thermo Scientific) and detected with a Q Exactive™ mass spectrometer (Thermo Scientific). The fold change in abundance of each histone peptide from the input sample compared to the pull down was calculated from the light:heavy ratio in detected peak size.

[9] = tested on: mammalian mononucleosomes from HEK-293T cells; assay: as above; type: binding, human; conditions: SSX1 pulldown
Procedure: as §2

[10] = biological target: T2, mammalian mononucleosomes from HEK-293T cells (Homo sapiens, UniProt P0C0S5); assay: as above; type: binding; conditions: SSX1 pulldown, HEK293T nucleosomes; parent peptide H2A.Z; normalized to histone norm peptide, log2
T2 construct: endogenous in cells; host or cells: HEK293T (chromatin digested with MNase, glycerol gradient)
T2 sequence (P0C0S5 whole entry): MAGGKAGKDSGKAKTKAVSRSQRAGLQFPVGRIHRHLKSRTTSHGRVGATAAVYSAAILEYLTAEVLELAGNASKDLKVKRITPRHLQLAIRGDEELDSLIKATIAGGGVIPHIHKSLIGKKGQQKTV
Procedure: as §2

[11] = HEK293T nucleosomes, normalized to histone norm peptide, log2
[12] = HEK293T nucleosomes, parent peptide H2AK5K9, normalized to histone norm peptide, log2
[13] = HEK293T nucleosomes, parent peptide H2AK13K15, normalized to histone norm peptide, log2
[14] = HEK293T nucleosomes, parent peptide H2B, normalized to histone norm peptide, log2
[15] = HEK293T nucleosomes, parent peptide H3K4, normalized to histone norm peptide, log2
[16] = HEK293T nucleosomes, parent peptide H3K9K14, normalized to histone norm peptide, log2
[17] = HEK293T, parent peptide H2AK5K9
[18] = HEK293T, parent peptide H3K9K14

CCCc1cc(C)[nH]c(=O)c1CNC(=O)c1cc(-c2ccc(N3CCN(C(C)C)CC3)nc2)cc2c1cnn2C(C)C [EZH2 inhibitor, reference compound]
SS18-SSX foci localized to Barr bodies after treatment ([1]; 293T cells, versus DMSO control): no change to SS18-SSX foci localized to Barr bodies

SSX aa166-188: biotinylated 23-residue SSX peptide lacking the W164 residue
nucleosome binding in pull-down [2]: failed to do so

ARID1B: BAF complex subunit quantified in the IP MS
Aska (shControl)/Aska (shSS18-SSX) LFQ Intensity (Norm to SMARCA4 Rep 1) [3]: 0.7212
Aska (shControl)/Aska (shSS18-SSX) LFQ Intensity (Norm to SMARCA4 Rep 2) [3]: 0.6498

SSX aa155-188: N-terminally biotinylated peptide of the conserved 34aa region of SSX
labeling of Barr bodies by biotinylated peptide [4]: Clear labeling of Barr bodies
histone-SSX crosslinks across the acidic patch [5]: most prominently at positions H2A E56 and H2B E113
nucleosome binding in pull-down [2]: sufficient for SSX nucleosome binding

SSX aa165-188: biotinylated 24-residue SSX peptide lacking the W164 residue
nucleosome binding in pull-down [2]: failed to do so

BCL7C: BAF complex subunit quantified in the IP MS
Aska (shControl)/Aska (shSS18-SSX) LFQ Intensity (Norm to SMARCA4 Rep 1) [3]: 1.744
Aska (shControl)/Aska (shSS18-SSX) LFQ Intensity (Norm to SMARCA4 Rep 2) [3]: 1.537

mutation of the C-terminal acidic region of SSX to alanines: GST-SSX with acidic C-term DPEEDDE replaced by AAAAAAA (SGPKRGKHAWTHRLRERKQLVIYEEISAAAAAAA)
affinity to H2A K119Ub-decorated nucleosomes, pulldown ([6]; H3 immunoblot): relieved the preference of SSX for H2AK119Ub nucleosomes
SSX binding to nucleosomes ([6]; WT or H2A K119Ub nucleosomes): not altering SSX binding to nucleosomes

SS18-SSX: SS18 aa 1-379 fused to the C-terminal 78 aa of SSX1 (SEQ ID NO: 225)
proliferation of SS cells with shSSX knockdown of endogenous SS18-SSX [7]: rescued proliferation
localization / recruitment to Barr bodies ([1]; immunofluorescence): strong colocalization

SSX1
log2norm (Light/Heavy) intensity ratio of H4(20to23)K20me0 [8, 11]: 0.017 and 0.092
log2norm (Light/Heavy) intensity ratio of H4(20to23)K20me1 [8, 11]: −0.427 and −0.443
log2norm (Light/Heavy) intensity ratio of H4(20to23)K20me2 [8, 11]: −0.414 and −0.391
log2norm (Light/Heavy) intensity ratio of H4(20to23)K20me3 [8, 11]: −0.109 and 0.055
H4(20to23)K20me1 norm to ctrl avg ([8]; HEK293T): 0.211 and 0.195
H4(20to23)K20me2 norm to ctrl avg ([8]; HEK293T): 0.024 and 0.047
log2norm (Light/Heavy) intensity ratio of H2A(4to11)K5ac1 [9, 12]: 0.569 and 0.624
log2norm (Light/Heavy) intensity ratio of H2A(4to11)K5ac1K9ac1 [9, 12]: −0.031 and −0.049
log2norm (Light/Heavy) intensity ratio of H2A(4to11)K9ac1 [9, 12]: −0.254 and −0.375
log2norm (Light/Heavy) intensity ratio of H2A(4to11)ac0 [9, 12]: −0.026 and 0.061
log2norm (Light/Heavy) intensity ratio of H2A(12to17)K13ac1 [9, 13]: 0.032 and −0.047
log2norm (Light/Heavy) intensity ratio of H2A(12to17)K15ac1 [9, 13]: 0.042 and −0.086
log2norm (Light/Heavy) intensity ratio of H2B(1to29)K5ac1 [9, 14]: 0.273 and 0.323
log2norm (Light/Heavy) intensity ratio of H2B(1to29)ac0 [9, 14]: 0.152 and 0.160
log2norm (Light/Heavy) intensity ratio of H3K4ac1 [9, 15]: 0.263 and 0.320
log2norm (Light/Heavy) intensity ratio of H3K4me0 [9, 15]: 0.549 and 0.339
log2norm (Light/Heavy) intensity ratio of H3K4me2 [9, 15]: 0.778 and 0.532
log2norm (Light/Heavy) intensity ratio of H3K4me3 [9, 15]: 0.766 and 0.505
log2norm (Light/Heavy) intensity ratio of H3K9me1S10ph1K14ac1 [9, 16]: −2.668 and −2.507
log2norm (Light/Heavy) intensity ratio of H3K9me2S10ph1K14ac1 [9, 16]: −0.870 and −1.009
log2norm (Light/Heavy) intensity ratio of H3K79me2 ([9]; HEK293T nucleosomes, parent peptide H3K79, normalized to histone norm peptide, log2): 0.826 and 0.557
H2A(4to11)K5ac1K9ac1 norm to ctrl avg [9, 17]: 0.050 and 0.032
H2A(4to11)K9ac1 norm to ctrl avg [9, 17]: 0.404 and 0.283
H2A(12to17)K13ac1 norm to ctrl avg ([9]; HEK293T, parent peptide H2AK13K15): 0.266 and 0.188
H2B(1to29)K5ac1 norm to ctrl avg ([9]; HEK293T, parent peptide H2B): 0.154 and 0.203
H2B(1to29)ac0 norm to ctrl avg ([9]; HEK293T, parent peptide H2B): 0.191 and 0.199
H3K4me0 norm to ctrl avg ([9]; HEK293T, parent peptide H3K4): 0.514 and 0.304
H3K9me1S10ph1K14ac1 norm to ctrl avg [9, 18]: 0.290 and 0.451
H3K9me2S10ph1K14ac0 norm to ctrl avg [9, 18]: 1.301 and 0.892
H3K9me2S10ph1K14ac1 norm to ctrl avg [9, 18]: 1.152 and 1.012
log2norm (Light/Heavy) intensity ratio of H2AZ(1to19)K4ac1 [10]: −0.217 and 0.048
log2norm (Light/Heavy) intensity ratio of H2AZ(1to19)ac0 [10]: −0.784 and −0.697
